Test [1] has as its target T1, 5-hydroxytryptamine receptor 2C (Homo sapiens, UniProt P28335).
T1 sequence (P28335 whole entry): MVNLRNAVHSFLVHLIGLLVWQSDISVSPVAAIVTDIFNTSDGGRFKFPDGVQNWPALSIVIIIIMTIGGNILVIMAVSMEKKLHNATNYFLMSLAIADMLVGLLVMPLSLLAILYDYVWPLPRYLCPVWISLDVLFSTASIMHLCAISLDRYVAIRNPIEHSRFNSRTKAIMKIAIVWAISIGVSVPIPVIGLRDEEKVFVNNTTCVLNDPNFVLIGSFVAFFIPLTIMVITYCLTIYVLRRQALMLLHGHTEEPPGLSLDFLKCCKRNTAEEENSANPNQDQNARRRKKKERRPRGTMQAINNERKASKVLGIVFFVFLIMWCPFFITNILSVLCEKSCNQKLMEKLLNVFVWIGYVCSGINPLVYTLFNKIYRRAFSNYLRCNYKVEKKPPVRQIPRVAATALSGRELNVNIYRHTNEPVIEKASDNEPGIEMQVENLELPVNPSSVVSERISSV

The target in test [2] is Delta-type opioid receptor (Homo sapiens, UniProt P41143).
Sequence of Delta-type opioid receptor (P41143 whole entry): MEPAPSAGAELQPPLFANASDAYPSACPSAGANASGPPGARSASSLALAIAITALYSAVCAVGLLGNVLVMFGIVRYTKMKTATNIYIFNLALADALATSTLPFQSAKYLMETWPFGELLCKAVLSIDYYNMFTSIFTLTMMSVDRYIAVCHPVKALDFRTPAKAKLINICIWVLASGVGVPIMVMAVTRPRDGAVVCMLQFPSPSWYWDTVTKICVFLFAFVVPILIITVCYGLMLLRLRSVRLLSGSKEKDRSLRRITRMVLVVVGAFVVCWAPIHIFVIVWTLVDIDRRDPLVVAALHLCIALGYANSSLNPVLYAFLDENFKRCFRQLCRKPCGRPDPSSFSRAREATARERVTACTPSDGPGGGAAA
The target of test [3] is T2, Adenosine receptor A1 (Homo sapiens, UniProt P30542).
T2 sequence (P30542 whole entry): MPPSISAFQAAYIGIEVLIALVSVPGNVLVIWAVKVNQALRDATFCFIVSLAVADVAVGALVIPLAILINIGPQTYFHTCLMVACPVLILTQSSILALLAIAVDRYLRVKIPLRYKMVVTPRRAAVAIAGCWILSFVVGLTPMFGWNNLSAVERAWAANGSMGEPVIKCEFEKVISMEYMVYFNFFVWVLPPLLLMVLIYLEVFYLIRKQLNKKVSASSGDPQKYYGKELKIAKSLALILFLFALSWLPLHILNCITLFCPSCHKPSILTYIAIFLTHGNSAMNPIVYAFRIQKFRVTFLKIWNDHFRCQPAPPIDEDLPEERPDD

Test [4] addresses Bile salt export pump (Homo sapiens, UniProt O95342). The class given is functional.
The target in test [5] is 5-hydroxytryptamine receptor 2B (Homo sapiens, UniProt P41595). The class given is functional, cell-based.
Sequence of 5-hydroxytryptamine receptor 2B (P41595 whole entry): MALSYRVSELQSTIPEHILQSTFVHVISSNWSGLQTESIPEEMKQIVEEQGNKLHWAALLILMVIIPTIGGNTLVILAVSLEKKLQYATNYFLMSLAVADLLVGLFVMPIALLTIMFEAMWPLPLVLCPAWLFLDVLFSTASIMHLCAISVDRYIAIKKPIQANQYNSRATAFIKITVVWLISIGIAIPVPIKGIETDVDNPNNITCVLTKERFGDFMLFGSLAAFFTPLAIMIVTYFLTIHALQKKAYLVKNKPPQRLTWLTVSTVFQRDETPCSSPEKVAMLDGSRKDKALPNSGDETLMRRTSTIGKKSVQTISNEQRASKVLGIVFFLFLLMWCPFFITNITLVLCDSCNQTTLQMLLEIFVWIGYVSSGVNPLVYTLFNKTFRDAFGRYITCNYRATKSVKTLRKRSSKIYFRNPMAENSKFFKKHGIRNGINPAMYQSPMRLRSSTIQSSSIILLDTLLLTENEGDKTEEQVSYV
For test [6], the target named is cGMP-inhibited 3',5'-cyclic phosphodiesterase 3A (Homo sapiens, UniProt Q14432). The class given is functional.
Sequence of cGMP-inhibited 3',5'-cyclic phosphodiesterase 3A (Q14432 whole entry): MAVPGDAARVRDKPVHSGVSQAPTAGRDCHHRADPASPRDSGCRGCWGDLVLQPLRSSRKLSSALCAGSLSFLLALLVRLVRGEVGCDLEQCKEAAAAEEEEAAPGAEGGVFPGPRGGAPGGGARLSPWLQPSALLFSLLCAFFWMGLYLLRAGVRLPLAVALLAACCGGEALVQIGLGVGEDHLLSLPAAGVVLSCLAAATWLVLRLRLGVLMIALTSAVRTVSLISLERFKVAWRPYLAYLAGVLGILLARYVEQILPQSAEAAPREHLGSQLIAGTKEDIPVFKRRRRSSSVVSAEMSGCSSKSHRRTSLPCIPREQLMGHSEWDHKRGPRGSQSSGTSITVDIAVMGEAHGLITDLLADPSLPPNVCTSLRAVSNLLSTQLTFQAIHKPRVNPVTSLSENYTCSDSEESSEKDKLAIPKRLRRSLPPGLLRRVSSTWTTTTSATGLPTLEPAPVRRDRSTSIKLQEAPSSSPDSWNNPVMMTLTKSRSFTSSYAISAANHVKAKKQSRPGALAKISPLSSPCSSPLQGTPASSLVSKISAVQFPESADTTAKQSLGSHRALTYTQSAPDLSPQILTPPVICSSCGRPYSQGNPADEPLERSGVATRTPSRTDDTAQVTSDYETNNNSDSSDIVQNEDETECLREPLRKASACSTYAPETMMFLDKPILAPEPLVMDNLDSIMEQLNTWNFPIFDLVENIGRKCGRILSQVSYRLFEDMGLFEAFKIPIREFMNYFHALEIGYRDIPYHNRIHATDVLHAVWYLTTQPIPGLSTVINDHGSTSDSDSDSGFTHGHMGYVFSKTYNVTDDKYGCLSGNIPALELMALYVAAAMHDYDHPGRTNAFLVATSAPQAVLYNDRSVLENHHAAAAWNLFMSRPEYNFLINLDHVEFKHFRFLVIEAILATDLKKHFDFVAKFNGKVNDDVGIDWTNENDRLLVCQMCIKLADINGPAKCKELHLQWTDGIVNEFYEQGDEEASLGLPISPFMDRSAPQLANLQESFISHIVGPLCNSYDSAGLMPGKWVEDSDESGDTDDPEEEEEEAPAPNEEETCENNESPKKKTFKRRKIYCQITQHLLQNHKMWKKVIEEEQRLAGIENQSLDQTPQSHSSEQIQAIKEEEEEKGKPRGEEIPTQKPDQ
Test [7] addresses Motilin receptor (Homo sapiens, UniProt O43193).
Test [8] deals with T3, Amine oxidase [flavin-containing] A (Homo sapiens, UniProt P21397).
T3 sequence (P21397 whole entry): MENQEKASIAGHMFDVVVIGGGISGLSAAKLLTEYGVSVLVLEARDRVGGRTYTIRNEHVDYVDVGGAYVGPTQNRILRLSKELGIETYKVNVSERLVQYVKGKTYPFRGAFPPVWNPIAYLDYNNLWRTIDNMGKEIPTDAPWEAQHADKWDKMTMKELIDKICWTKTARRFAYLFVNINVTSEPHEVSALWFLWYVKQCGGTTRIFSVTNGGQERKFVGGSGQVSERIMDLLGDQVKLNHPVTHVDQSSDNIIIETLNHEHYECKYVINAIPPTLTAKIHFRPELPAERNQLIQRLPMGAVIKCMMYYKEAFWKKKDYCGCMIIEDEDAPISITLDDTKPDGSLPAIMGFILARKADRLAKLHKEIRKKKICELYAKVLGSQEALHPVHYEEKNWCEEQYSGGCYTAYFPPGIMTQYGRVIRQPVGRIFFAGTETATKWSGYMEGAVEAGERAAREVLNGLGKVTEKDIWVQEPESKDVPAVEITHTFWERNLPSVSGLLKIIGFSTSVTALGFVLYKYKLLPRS
The class given is functional.

The target of test [9] is T4, 5-hydroxytryptamine receptor 1A (Homo sapiens, UniProt P08908).
T4 sequence (P08908 whole entry): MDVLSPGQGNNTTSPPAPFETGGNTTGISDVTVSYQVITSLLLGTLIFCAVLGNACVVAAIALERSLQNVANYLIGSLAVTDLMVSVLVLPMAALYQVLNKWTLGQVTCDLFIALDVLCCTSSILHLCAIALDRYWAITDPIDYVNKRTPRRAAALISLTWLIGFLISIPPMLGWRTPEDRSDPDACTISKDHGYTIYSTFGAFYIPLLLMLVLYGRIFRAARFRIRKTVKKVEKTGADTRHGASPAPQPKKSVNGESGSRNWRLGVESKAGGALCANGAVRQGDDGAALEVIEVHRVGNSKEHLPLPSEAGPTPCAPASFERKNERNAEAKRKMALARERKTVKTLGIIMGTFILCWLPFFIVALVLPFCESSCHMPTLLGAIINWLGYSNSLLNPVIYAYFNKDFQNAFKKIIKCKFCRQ
The test is classed as functional, cell-based.

The target of test [10] is Neuronal acetylcholine receptor subunit alpha-4 (Homo sapiens, UniProt P43681).
Sequence of Neuronal acetylcholine receptor subunit alpha-4 (P43681 whole entry): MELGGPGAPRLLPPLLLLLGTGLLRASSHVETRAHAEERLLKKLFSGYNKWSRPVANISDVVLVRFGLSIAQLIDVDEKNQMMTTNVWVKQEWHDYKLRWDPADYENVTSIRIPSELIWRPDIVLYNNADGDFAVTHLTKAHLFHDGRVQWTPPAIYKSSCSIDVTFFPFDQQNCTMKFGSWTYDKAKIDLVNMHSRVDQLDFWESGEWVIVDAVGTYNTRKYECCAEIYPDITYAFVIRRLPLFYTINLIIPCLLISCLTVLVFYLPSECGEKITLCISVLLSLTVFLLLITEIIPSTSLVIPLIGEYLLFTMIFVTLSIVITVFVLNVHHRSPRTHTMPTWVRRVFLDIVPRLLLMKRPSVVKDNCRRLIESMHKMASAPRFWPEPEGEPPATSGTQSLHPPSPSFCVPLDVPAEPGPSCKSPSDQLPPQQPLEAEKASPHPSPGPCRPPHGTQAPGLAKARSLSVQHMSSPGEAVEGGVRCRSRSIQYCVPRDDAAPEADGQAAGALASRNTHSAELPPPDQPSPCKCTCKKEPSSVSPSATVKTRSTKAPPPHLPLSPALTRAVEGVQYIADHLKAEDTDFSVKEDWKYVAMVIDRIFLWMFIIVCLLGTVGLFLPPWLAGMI
For test [11], the target named is T5, Equilibrative nucleoside transporter 1 (Homo sapiens, UniProt Q99808).
T5 sequence (Q99808 whole entry): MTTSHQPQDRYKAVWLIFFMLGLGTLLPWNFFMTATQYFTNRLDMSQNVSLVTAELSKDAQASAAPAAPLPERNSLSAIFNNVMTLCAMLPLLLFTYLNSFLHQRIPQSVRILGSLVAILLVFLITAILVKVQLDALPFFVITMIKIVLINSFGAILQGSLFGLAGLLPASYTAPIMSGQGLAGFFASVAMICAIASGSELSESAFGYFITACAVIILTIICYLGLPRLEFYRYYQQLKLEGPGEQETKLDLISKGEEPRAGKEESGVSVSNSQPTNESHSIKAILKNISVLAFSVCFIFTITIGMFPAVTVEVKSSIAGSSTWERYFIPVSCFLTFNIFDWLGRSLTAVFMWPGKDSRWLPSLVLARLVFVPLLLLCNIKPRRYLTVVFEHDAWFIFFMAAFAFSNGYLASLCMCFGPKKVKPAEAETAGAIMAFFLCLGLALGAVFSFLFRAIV

SMILES strings stand for the structures.
Also: assay procedure not described here.

Sequence of Bile salt export pump (O95342 whole entry): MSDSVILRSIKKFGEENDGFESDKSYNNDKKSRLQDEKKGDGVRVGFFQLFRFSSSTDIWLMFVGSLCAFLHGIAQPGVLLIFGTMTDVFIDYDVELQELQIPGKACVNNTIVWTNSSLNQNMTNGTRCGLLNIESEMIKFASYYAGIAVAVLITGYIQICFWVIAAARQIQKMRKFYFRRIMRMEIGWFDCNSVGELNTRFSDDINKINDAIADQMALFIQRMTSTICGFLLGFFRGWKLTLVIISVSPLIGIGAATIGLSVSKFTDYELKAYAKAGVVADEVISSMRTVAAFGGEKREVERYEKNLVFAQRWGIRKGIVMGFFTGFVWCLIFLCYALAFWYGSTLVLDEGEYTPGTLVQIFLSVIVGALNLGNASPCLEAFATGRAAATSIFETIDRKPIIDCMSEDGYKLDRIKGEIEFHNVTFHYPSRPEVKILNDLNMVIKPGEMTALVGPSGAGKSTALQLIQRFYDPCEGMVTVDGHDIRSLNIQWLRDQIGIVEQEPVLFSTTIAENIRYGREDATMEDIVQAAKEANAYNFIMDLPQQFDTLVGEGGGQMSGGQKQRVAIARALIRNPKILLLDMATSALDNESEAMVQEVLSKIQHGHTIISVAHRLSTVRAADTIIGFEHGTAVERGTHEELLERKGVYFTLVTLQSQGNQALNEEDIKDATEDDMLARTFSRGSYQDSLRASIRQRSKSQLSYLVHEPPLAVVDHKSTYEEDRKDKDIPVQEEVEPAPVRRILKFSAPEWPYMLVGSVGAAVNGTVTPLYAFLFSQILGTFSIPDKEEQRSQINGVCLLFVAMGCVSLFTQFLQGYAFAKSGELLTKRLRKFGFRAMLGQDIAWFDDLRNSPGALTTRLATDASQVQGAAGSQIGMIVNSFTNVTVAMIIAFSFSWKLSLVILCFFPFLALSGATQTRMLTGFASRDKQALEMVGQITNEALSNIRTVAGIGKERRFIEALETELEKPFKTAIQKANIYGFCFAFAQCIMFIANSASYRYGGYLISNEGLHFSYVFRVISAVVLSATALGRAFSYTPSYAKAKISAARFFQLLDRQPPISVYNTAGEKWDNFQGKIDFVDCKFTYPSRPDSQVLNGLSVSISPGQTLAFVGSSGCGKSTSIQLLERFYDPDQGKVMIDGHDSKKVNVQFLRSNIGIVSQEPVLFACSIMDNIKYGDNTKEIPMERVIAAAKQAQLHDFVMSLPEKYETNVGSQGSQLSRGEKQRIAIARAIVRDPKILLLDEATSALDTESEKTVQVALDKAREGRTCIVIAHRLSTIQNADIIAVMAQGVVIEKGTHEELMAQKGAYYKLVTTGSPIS
Sequence of Motilin receptor (O43193 whole entry): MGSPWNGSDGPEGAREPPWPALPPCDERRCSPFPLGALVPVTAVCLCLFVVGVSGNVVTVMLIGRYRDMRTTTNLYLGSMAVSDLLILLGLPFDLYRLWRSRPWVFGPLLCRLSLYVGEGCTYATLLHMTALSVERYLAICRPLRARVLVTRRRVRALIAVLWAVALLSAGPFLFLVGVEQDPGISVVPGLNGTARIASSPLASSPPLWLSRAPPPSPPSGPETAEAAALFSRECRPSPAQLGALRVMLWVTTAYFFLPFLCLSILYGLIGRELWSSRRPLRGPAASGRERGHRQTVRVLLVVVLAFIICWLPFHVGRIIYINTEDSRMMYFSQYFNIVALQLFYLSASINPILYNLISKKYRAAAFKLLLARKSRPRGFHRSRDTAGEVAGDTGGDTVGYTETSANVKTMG

Usually AC50 stands for the concentration at which the activity in the assay is half-maximal. `N[C@@H](C(=O)N[C@@H]1C(=O)N2C(C(=O)O)=C(Cl)CS[C@H]12)c1ccccc1` [CEFACLOR ANHYDROUS]: the AC50 is above 10 µM in test [1]; above 30 µM in test [2]; above 30 µM in test [3]; above 300 µM in [4]; above 30 µM in test [5]; above 30 µM in test [6]. Also, the AC50 in [7], in test [8], in [9], in test [10] and in test [11] was above 30 µM in each case.

On to `NC1=NC(=O)C(c2ccccc2)O1` (configuration not stated) [PEMOLINE], for which the AC50 is above 30 µM in test [1]; above 30 µM in [2]; above 30 µM in [3]; above 300 µM in test [4]; above 10 µM in [5]; above 30 µM in test [6]. The AC50 is above 10 µM in test [7]; above 10 µM in test [8]; above 10 µM in [9]; above 10 µM in test [10]; above 30 µM in test [11].

As for `CC(C(=O)O)c1ccc(N2CC=CC2)c(Cl)c1` (configuration not stated) [PIRPROFEN], the AC50 is above 30 µM in test [1]; above 30 µM in [2]; above 30 µM in test [3]; 270 µM in test [4]; above 10 µM in test [5]; above 30 µM in [6]. The AC50 is above 10 µM in test [7]; above 10 µM in test [8]; above 10 µM in test [9]; above 10 µM in test [10]; above 30 µM in test [11].

As for `Nc1nc(N)c2nc(-c3ccccc3)c(N)nc2n1`, the AC50 in test [1] was above 30 µM; in test [2], above 30 µM; in [3], above 30 µM; in test [4] it was above 300 µM; in test [5], above 30 µM; in test [6], above 30 µM. In addition, the AC50 in test [7], in test [8], in [9], in [10] and in test [11] was above 30 µM in each case.

For the molecule `NC(=O)c1ncn([C@@H]2O[C@H](CO)[C@@H](O)[C@H]2O)c1O` [MIZORIBINE], the AC50 in test [1] is above 30 µM; in test [2], above 30 µM; in test [3], above 30 µM; in test [4], above 300 µM; in test [5], above 30 µM; in test [6], above 30 µM. Further, the AC50 in test [7], in test [8], in [9], in test [10] and in [11] was above 30 µM each time.

Consider `CN1C(=O)CC(C)(c2ccccc2)C1=O` (configuration not stated) [METHSUXIMIDE], for which the AC50 in test [1] was above 30 µM; in [2] it was above 30 µM; in test [3], above 10 µM; in [4], above 300 µM; in test [5], above 10 µM; in test [6] it was above 30 µM. The AC50 in test [7], in test [8], in test [9], in test [10] and in test [11] was above 10 µM throughout.

Consider `OCc1cc([C@@H](O)CNCCCCCCOCCOCc2c(Cl)cccc2Cl)ccc1O` [VILANTEROL], for which the AC50 in test [1] was above 30 µM; in test [2], above 30 µM; in test [3], above 30 µM; in test [4], 44 µM; in [5], above 30 µM; in test [6], above 30 µM. Further, the AC50 in test [7] is 14 µM; in test [8] it was above 30 µM; in test [9], above 30 µM; in test [10], above 30 µM; in test [11], above 30 µM.

`CO/N=C(\C(=O)N[C@@H]1C(=O)N2C(C(=O)[O-])=C(C[N+]3(C)CCCC3)CS[C@H]12)c1csc(N)n1`: the concentration at half-maximal activity (AC50) in test [1], in test [2], in test [3], in test [4], in [5] and in test [6] was above 300 µM each time. The AC50 in test [7], in test [8], in test [9], in [10] and in test [11] was above 300 µM throughout.

Regarding `NC(=O)c1cnccn1` [PYRAZINAMIDE], the AC50 is above 30 µM in test [1]; above 30 µM in [2]; above 30 µM in test [3]; above 300 µM in test [4]; above 30 µM in [5]; above 30 µM in test [6]. Moreover, the AC50 in [7], in test [8], in test [9], in [10] and in [11] was above 30 µM in each case.

For `O=C(O)c1cc(-c2ccc(F)cc2F)ccc1O` [DIFLUNISAL], the AC50 in test [1] is above 30 µM; in test [2], above 30 µM; in test [3] it was above 10 µM; in test [4], 160 µM; in test [5] it was above 10 µM; in test [6], above 30 µM. Also, the AC50 in test [7], in [8], in [9], in test [10] and in test [11] was above 10 µM each time.

Turning to `CC(=O)c1ccc2c(c1)N(CCCN1CCN(CCO)CC1)c1ccccc1S2` [ACETOPHENAZINE], the AC50 was above 30 µM in test [1]; above 30 µM in test [2]; above 30 µM in test [3]; above 300 µM in [4]; above 30 µM in test [5]; above 30 µM in [6]. The AC50 in test [7] was 27 µM; in [8] it was above 30 µM; in [9], above 30 µM; in [10], above 30 µM; in test [11], above 30 µM.

On to `C[C@@H]1O[C@@H]1P(=O)(O)O` [FOSFOMYCIN], for which the AC50 in test [1] is above 30 µM; in test [2] it was above 30 µM; in test [3], above 10 µM; in [4] it was above 300 µM; in [5], above 10 µM; in test [6] it was above 30 µM. Moreover, the AC50 in [7], in test [8], in [9], in test [10] and in test [11] was above 10 µM in each case.
